The results in this text go back to patent US20220340975A1, “METHOD OF TREATMENT AND PRONOSTIC OF ACUTE MYELOID LEUKEMIA” (INSERM (Institute National de la Santé et de la Recherche …, priority 2019, published 2022).

For assay [1], the system named is OCI-AML3 cells. Nature of the assay: CD11b/CD11c differentiation markers by flow cytometry in OCI-AML3 with or without H1d knockdown and ATRA. In kind it is cell-based. The note with it: for proportion of the double positive CD11b/CD11c populations / CD11b expression (percentage of CD11b positive cells): ATRA 0.5 μM; for proportion of the double positive CD11b/CD11c populations: 72 h. As for the experimental part: (A) OCI-AML cells were stably infected by a doxycycline inducible shCtrl or shH1d. Expression of the main histone H1 genes (HIST1H1B, HIST1H1C, HIST1H1D, HIST1H1E, HIST1H1F0 and HIST1HIFx) were analyzed by qPCR in shCtrl and sh #1 without (Dox−) or with 6-days-induction of doxycycline (Dox+). Data represent three independent Dox inductions. Results are normalized on HPRT and expressed in fold change (FC) between Doxycyline treated (Dox+) and non-treated conditions (Dox−). (B) Percentage of CD11b positive cells in shCtrl and sh #1 upon or not (Dox−) 6-days-induction with 2 μg/mL doxycycline (Dox+), without ATRA (wo ATRA) or with 72 hours of ATRA treatment (0.5 μM or 1 μM). (C) Percentage of CD11b-CD11c cells upon 72 h of ATRA-treatment (0.5 μM) in shCtrl and sh #1 conditions. Data represent three independent experiments. Statistical significance was estimated using Mann Whitney test * p<0.05; **p<0.005. (D) Cytological analysis of shCtrl and sh #1 clones upon or not (Dox−) 6-days-induction with doxycycline (Dox+) and after 96 h of ATRA treatment (0.5 μM). (D) May-Grunwald Giemsa coloration of shCtrl and sh #1 clones after 6-days-induction with doxycycline and 96 h hours of ATRA treatment. Black arrows are pointing cytoplasmic azurophilic granules. (E) Expression analysis of two genes associated with ATRA-induced differentiation: CYBB (Cytochrome B-245 Beta Chain) and ITGAM (Integrin Subunit Alpha M) in untreated OCI-AML3 and in ATRA-treated (1 μM) sh #1 without or with doxycycline induction. Data represent three independent experiments. Gene expression was normalized to two housekeeping genes (PGK1 and PPIA). Statistical significance was estimated using T-test (* one-tailed p value <0.05).
The OCI-AML3 cells were grown in MEMα medium supplemented with 20% fetal bovine serum, 100 U/mL penicillin and 100 U/mL streptomycin at 37° C. in humidified atmosphere containing 5% CO2. H1d knockdown was achieved using doxycylin-induced Dharmacon™SMARTvector™ short hairpin RNA (n° V3SH7669-229784413). A non-silencing sh RNA (piSMART VSC10730) was used as a control (shCtrl). Cells containing the SMARTvector™ were selected on puromycin (2 μg/mL) during one day and sorted using ARIAIII cytometer before clonal selection. Three independent cellular clones (sh #1; sh #2; sh #3) were selected. KD of H1d protein was obtained by the addition on doxycycline (2 μg/mL) during 5-7 days. All-trans-retinoic acid (ATRA; Sigma) was resuspended at 10 mM in DMSO and stored at −20° C. Intermediate dilutions were made in culture medium before adding to the cells.
Flow cytometry analyses were performed using a BD-LSRII cytometer and analyzed using BD-DIVA Version 6.1.2 software (BD Biosciences). […]
(§1) To investigate the effect of low H1d expression on AML, we performed H1d knockdown (KD) in OC1-AML3 cells, an AML cell line expressing a NPM1 mutated allele.^26 Efficiency and specificity of our KD were assessed by testing the different mRNA H1 subtypes expression by q-PCR (FIG. 2A) and by measuring H1d protein level after doxycycline induction (data not shown). Consequences of H1d KD on differentiation were evaluated by measuring CD11b and CD11c expression in OCI-AML3 after doxycycline induction. […] As OCI-AML3 can differentiate in vitro in the presence of ATRA, albeit at low efficiency,^27,28 we further analyzed the effect of H1d KD in combination with ATRA treatment. […]

For assay [2], the system named is OCI-AML3 cells. Nature of the assay: Morphological analysis (May-Grunwald Giemsa), cells with cytoplasmic granules. In kind it is cell-based. As to conditions: ATRA 0.5 μM, 96 h. As for the experimental part: (§2) (A) OCI-AML cells were stably infected by a doxycycline inducible shCtrl or shH1d. Expression of the main histone H1 genes (HIST1H1B, HIST1H1C, HIST1H1D, HIST1H1E, HIST1H1F0 and HIST1HIFx) were analyzed by qPCR in shCtrl and sh #1 without (Dox−) or with 6-days-induction of doxycycline (Dox+). Data represent three independent Dox inductions. Results are normalized on HPRT and expressed in fold change (FC) between Doxycyline treated (Dox+) and non-treated conditions (Dox−). (B) Percentage of CD11b positive cells in shCtrl and sh #1 upon or not (Dox−) 6-days-induction with 2 μg/mL doxycycline (Dox+), without ATRA (wo ATRA) or with 72 hours of ATRA treatment (0.5 μM or 1 μM). […]
Cytospins were prepared by centrifugation in […] PBS at a speed of 500 rpm for 5 min using Superfrost slides. […] 100 cells were counted in duplicate for each condition and examined for cellular morphology using an structured light ApoTome™ microscope (Zeiss, Munich, Germany) equipped with a 63× 1.4 plan ApoChromat objective and an Axiocam™ MRc5 camera.
To investigate the effect of low H1d expression on AML, we performed H1d knockdown (KD) in OC1-AML3 cells, an AML cell line expressing a NPM1 mutated allele.^26 Efficiency and specificity of our KD were assessed by testing the different mRNA H1 subtypes expression by q-PCR (FIG. 2A) and by measuring H1d protein level after doxycycline induction (data not shown). […]

Assay [3] deals with OCI-AML3 cells. Nature of the assay: qPCR expression of ATRA-induced genes CYBB and ITGAM. In kind it is cell-based. The note with it: ATRA 1 μM, H1d KD versus no doxycycline induction. The protocol:
as §2, §1

The test system of assay [4] is NPM1mut AML patient-derived xenograft (H3K27me3HIST1high / H3K27me3HIST1low). Nature of the assay: Patient-derived xenograft (PDX) treated with Ara-C. The note with it: for Percentage of leukemic initiating cells (LIC) in BM: 2-round ARAC treated versus untreated. In kind it is in vivo, mice. The protocol: FIG. 4: Detection of leukemic initiating cells after ARAC treatment. (A) H3K27me3HIST1^high and H3K27me3HIST1^low AML secondary transplants were injected in immunocompromised mice (NSG). At disease detection, mice were treated with a first round of ARAC (T1). Blasts in the peripheral blood were followed and a second ARAC treatment (T2) was administrated. (B) Frequency of leukemic initiating cells were analyzed in the BM of the transplanted mice. Percentages are calculated in relation to CD45 and CD33 positive cells detected.
We determined the response to chemotherapy according to H3K27me3 status. This was tested in vivo using patient-derived xenograft (PDX) treated with chemotherapeutic drugs (Ara-C). We used secondary transplantation from 1 H3K27me3HIST1low and 2 H3K27me3HIST1high NPM1mut AML patients. Experimental groups of 6 mice/groups of H3K27me3 HIST1high versus H3K27me3 HIST1low were studied. Mice were treated for one week and progression of leukemia was evaluated by counting hCD45+ cells in blood and after euthanasia in bone marrow. Mouse maintenance and experimental procedures were performed in accordance with protocols approved and compliance with policies approved by the local Committee for Animal Experimentation of Marseille (CAE of Provence number 14), France (2-091009).
We performed a second round of ARAC treatment and analyzed the presence of leukemic cells 4-day post treatment. Numbers of blasts were variable depending on the patient with an accumulation in the BM of leukemic Blast in one of the PDX. […] Thus we analyzed the % of LIC in the 2-round ARAC treated mice in comparison to untreated ones (FIG. 4A).

As to `CC1=C(/C=C/C(C)=C/C=C/C(C)=C/C(=O)O)C(C)(C)CCC1` [ATRA, all-trans retinoic acid], the “proportion of the double positive CD11b/CD11c populations” value in assay [1] (H1d KD cells) is recorded as 42.5%; in assay [1] (control (no H1d KD)), 29.8%. In addition, the “CD11b expression (percentage of CD11b positive cells)” value in assay [1] (72 hours, with H1d KD (doxycycline-induced)) is reported as 41%; in assay [1] (72 hours, without H1d KD (control)) it was 22.6%. Besides, the CD11b expression entry in assay [1] (ATRA 1 μM, 72 hours, with H1d KD versus control) is listed as “significant increase”. Moreover, the “proportion of cells with more than two cytoplasmic granules” value in assay [2] (H1d KD) came out at 31.5±3.7; in assay [2] (control (no H1d KD)), 9.7%. The “CYBB mRNA expression level” value in assay [3] was “increased the amplitude of ATRA-induced upregulation”. Also, the “ITGAM mRNA expression level” value in assay [3] is listed as “increased the amplitude of ATRA-induced upregulation”.

Take `Nc1ccn([C@@H]2O[C@H](CO)[C@@H](O)[C@@H]2O)c(=O)n1` [ARAC, cytarabine]: the “Percentage of leukemic initiating cells (LIC) in BM” value in assay [4] (H3K27me3HIST1high PDX) was “identical before and after treatment”; in assay [4] (H3K27me3HIST1low PDX) it was “increased”. Moreover, the “Response to chemotherapy (progression of leukemia, hCD45+ cells)” value in assay [4] (first round, one week treatment, all PDX independently of H3K27me3HIST1 status) was “Response to chemotherapy was obtained in all mice”.
